Laboratory results from US10842727B2, “Cosmetic composition comprising white rose flower extract for skin whitening and improving skin wrinkle” (CHUNGBUK NATIONAL UNIVERSITY INDUSTRY-ACADEMIC COOPERATION …, priority 2014, dated 2020).

Experiments:
[1] = system: mushroom tyrosinase; experiment: Melanin synthase (tyrosinase) inhibition with L-DOPA, absorbance 475 nm; assay type: biochemical; conditions: method of Example 4
Procedure: Meanwhile, in order to measure a skin whitening effect of the white rose petal extract, an effect of inhibiting activity of tyrosinase as melanin synthase was measured with reference to the guideline of “beauty-related functional tests (pp. 821-858)” of Korea health official compendium research society foundation. […] In this case, on the basis of a change in absorbance when only the buffer without the white rose fractions was added as a reference (100%), reduction of the absorbance caused by the white rose fractions for each concentration was represented by an inhibition rate.

[2] = system: collagen matrix metalloproteinase-1 (MMP-1); experiment: Collagen matrix metalloproteinase-1 (MMP-1) activity inhibition, collagenase type-1 on bovine tendon collagen, ninhydrin absorbance 600 nm; assay type: biochemical; conditions: method of Example 3
Procedure: As part of measuring a wrinkle alleviation effect of the white rose petal extract, effects of inhibiting activity of collagen matrix metalloproteinase-1 (MMP-1) of the extracts were measured with reference to the guideline of “beauty-related functional tests (pp. 821-858)” of Korea health official compendium research society foundation.
When simply describing the effect, 25 mg of bovine tendon collagen was dissolved in a 0.05 M tris(hydroxymethyl)-methyl-2-aminoethane sulfonate (TES) buffer and then left for 15 minutes at 37° C. Next, a test material for each concentration was added and then additionally reacted with collagenase type-1 for 5 hours at 37° C. 0.2 mL of a reaction solution was taken and added to 1 mL of a buffer [4% ninhydrin in methyl cellosolve (2-methoxyethanol)+0.2 M sodium citrate with 0.71 mM stannous chloride]. The reaction solution was boiled for 20 minutes, added with n-propanol, and then left for 15 minutes and then absorbance was measured at 600 nm. On the basis of a change in absorbance when only the buffer without the white rose fractions was added as a reference (100%), reduction of the absorbance caused by the white rose fractions for each concentration was represented by an inhibition rate.

[3] = system: B16 mouse melanoma cells; experiment: Melanin synthesis inhibition in α-MSH-treated cells; assay type: cell-based; conditions: method of Example 5
Procedure: In order to more definitize a skin whitening effect of the white rose petal extract, the inventors measured a melanin synthesis inhibitory effect of the white rose petal extract at a cell level with reference to the guideline of “beauty-related functional tests (pp. 821-858)” of Korea health official compendium research society foundation (2004).
When simply describing this, B16 mouse melanoma cells were dispensed to 1×10^4 cells/well (0.5 mL) in a […] plate and cultured for 24 hours. The B16 mouse melanoma cells was treated with the white rose fraction for each concentration and a α-melanocyte stimulating hormone (MSH) and additionally cultured for 3 days at 37° C. The cells were lysed by adding 0.15 mL of 1 M NaOH to a culture medium and boiled for 5 minutes to elute the melanin. 0.1 mL of the eluate was taken and absorbance at 490 nm was measured. A standard calibration curve was created by synthetic melanin and the concentration was quantified and an inhibition rate for each concentration of the white rose fraction was proposed based on a melanin production amount when the sample was not treated as a reference (100%).

- tyrosinase inhibition activity (in words) [1]: excellent tyrosinase inhibition activity
SMILES: COc1c(CC=C(C)C)c(O)c2c(=O)c3c(O)ccc(OC)c3oc2c1CC=C(C)C [3,5-di-o-methyl-gartanin]
- inhibition effect of MMP-1 (in words) [2]: particularly excellent inhibition effect of MMP-1
- melanin synthesis inhibitory effect (in words) [3]: efficiently inhibited
